Measurements from ChEMBL document CHEMBL4354807, “Natural Product Albiziabioside A Conjugated with Pyruvate Dehydrogenase Kinase Inhibitor Dichloroacetate To Induce Apoptosis-Ferroptosis-M2-TAMs Polarization for Combined Cancer Therapy” (J Med Chem, 2019).
Activity calls are given as the source filed them. The rule behind the calls is not given here.

Assays:
MCF7 [1] = test: Induction of apoptosis in human MCF7 cells assessed as late apoptotic cells at 2 uM after 24 hrs by Annexin V-FITC/propidium iodide staining-based flow cytometric analysis (reference value: 2.97 %); type: functional
MCF7 [2] = test: Induction of ferroptosis in human MCF7 cells assessed as reduction in cellular GSH level at 2 uM after 24 hrs by microplate reader assay; type: functional, cell-based
[3] = target: [Pyruvate dehydrogenase (acetyl-transferring)] kinase isozyme 1, mitochondrial (Homo sapiens) (UniProt Q15118); test: Inhibition of PDK1 (unknown origin) expressed in human MCF7 cells using PDK tide as substrate measured after 90 mins in presence of ATP by ADP-Glo luminescent kinase assay
A-375 = test: Anticancer activity against human A375 cells expressing PDK assessed as reduction in cell viability after 72 hrs by MTT assay; type: functional, cell-based; settings: A-375, 72 h
MCF7 [4] = test: Downregulation of GPX4 expression in human MCF7 cells at 2 uM after 48 hrs by Western blot analysis; type: functional, cell-based
4T1 [5] = test: Reversal of immunosuppression against mouse 4T1 cells implanted in BALB/c mouse assessed as decrease in weight of primary tumor at 2 mg/kg administered intratumorally every 2 days for 2 weeks measured after 14 days; type: functional, organism-based
[6] = Cytotoxicity against human HBMEC cells assessed as combination index after 72 hrs by MTT assay; type: cell-based
[7] = target: [Pyruvate dehydrogenase (acetyl-transferring)] kinase isozyme 1, mitochondrial (Homo sapiens) (UniProt Q15118); test: Inhibition of PDK1 (unknown origin) in plasma using PDK tide as substrate measured after 90 mins in presence of ATP by ADP-Glo luminescent kinase assay; type: cell-free
Mus musculus [8] = test: Modulation of tumor immunosuppressive activity in BALB/c mouse xenografted with mouse 4T1 cells assessed as increase in TNFalpha expression in tumor administered intratumorally every other day for 14 days measured at 2 days post-last dose by ELISA; type: functional, organism-based
[9] = Toxicity in BALB/c nude mouse xenografted with human MCF7 cells assessed as effect on ALT level in blood at 2 mg/kg, iv administered every 2 days for 2 weeks measured after 14 days; type: organism-based; settings: in vivo, 336 h
[10] = Cytotoxicity against human HBMEC cells assessed as reduction in cell viability after 72 hrs by MTT assay; type: cell-based
L02 = test: Cytotoxicity against human LO2 cells assessed as combination index after 72 hrs by MTT assay; type: cell-based; settings: l02, 72 h
HCT-116 [11] = test: Anticancer activity against human HCT116 cells expressing PDK assessed as reduction in cell viability after 72 hrs by MTT assay; type: functional, cell-based; settings: HCT-116, 72 h
Mus musculus [12] = test: Modulation of tumor immunosuppressive activity in BALB/c mouse xenografted with mouse 4T1 cells assessed as decrease in IL10 expression in tumor administered intratumorally every other day for 14 days measured at 2 days post-last dose by ELISA; type: functional, organism-based
4T1 [13] = test: Inhibition of glycolysis in mouse 4T1 cells expressing PDK assessed as reduction in intracellular lactate level at 2 uM after 6 hrs by microplate reader assay; type: functional, cell-based
HCT-116 [14] = test: Synergistic anticancer activity against human HCT116 cells expressing assessed as combination index after 72 hrs by MTT assay; type: functional
4T1 [15] = test: Reversal of immunosuppression against mouse 4T1 cells implanted in BALB/c mouse assessed as reduction in tumor volume at 2 mg/kg administered intratumorally every 2 days for 2 weeks measured after 14 days; type: functional
MCF7 [16] = test: Induction of mitochondrial dysfunction in human MCF7 cells assessed as cell population with mitochondrial membrane potential collapse at 2 uM after 24 hrs by JC1 staining-based FACScalibur flow cytometry analysis (reference value: 2.74 %); type: functional
[17] = Selectivity index, ratio IC50 for cytotoxicity against human LO2 cells assessed as reduction in cell viability after 72 hrs by MTT assay to IC50 for anticancer activity against human HCT116 cells assessed as reduction in cell viability after 72 hrs by MTT assay; type: toxicity, cell-based; settings: LO2 cells versus HCT116 cells, read-out: Ratio IC50
[18] = Toxicity in BALB/c nude mouse xenografted with human MCF7 cells assessed as effect on blood urea nitrogen at 2 mg/kg, iv administered every 2 days for 2 weeks measured after 14 days; type: organism-based; settings: in vivo, 336 h
MCF7 [19] = test: Induction of apoptosis in human MCF7 cells assessed as upregulation of cytochrome C expression at 2 uM after 48 hrs by Western blot analysis relative to control; type: functional
MCF7 [20] = test: Cytotoxicity against human MCF7 cells assessed as cell death at 2 uM pretreated with Z-VAD-fmk followed by compound addition by MTT assay; type: functional, cell-based
[21] = Selectivity index, ratio IC50 for cytotoxicity against human HBMEC cells assessed as reduction in cell viability after 72 hrs by MTT assay to IC50 for anticancer activity against human HCT116 cells assessed as reduction in cell viability after 72 hrs by MTT assay
MCF7 [22] = test: Anticancer activity against human MCF7 cells overexpressing PDK assessed as reduction in cell viability after 72 hrs by MTT assay; type: functional, cell-based; settings: MCF7, 72 h
[23] = Toxicity in BALB/c nude mouse xenografted with human MCF7 cells assessed as effect on ALP level in blood at 2 mg/kg, iv administered every 2 days for 2 weeks measured after 14 days; type: organism-based; settings: in vivo, 336 h
4T1 [24] = test: Reversal of immunosuppression against mouse 4T1 cells implanted in BALB/c mouse assessed as decrease in weight of distal tumor at 2 mg/kg administered intratumorally every 2 days for 2 weeks measured after 14 days; type: functional, organism-based
[25] = Toxicity in BALB/c nude mouse xenografted with human MCF7 cells assessed as effect on spleen at 2 mg/kg, iv administered every 2 days for 2 weeks measured after 14 days by hematoxylin and eosin staining based histopathological analysis; type: organism-based; settings: in vivo, 336 h
MCF7 [26] = test: Downregulation of PDK expression in human MCF7 cells after 48 hrs by Western blot analysis; type: functional, cell-based
[27] = Toxicity in BALB/c nude mouse xenografted with human MCF7 cells assessed as effect on body weight at 2 mg/kg, iv administered every 2 days for 2 weeks measured after 14 days; type: organism-based; settings: in vivo, 336 h
4T1 [28] = test: Reversal of immunosuppression against mouse 4T1 cells implanted in BALB/c mouse assessed as growth inhibition of distal tumor at 2 mg/kg administered intratumorally every 2 days for 2 weeks measured after 14 days; type: functional, organism-based
[29] = Toxicity in BALB/c nude mouse xenografted with human MCF7 cells assessed as mouse death at 2 mg/kg, iv administered every 2 days for 2 weeks measured after 14 days; type: organism-based; settings: in vivo, 336 h
[30] = Selectivity index, ratio IC50 for cytotoxicity against human HBMEC cells assessed as reduction in cell viability after 72 hrs by MTT assay to IC50 for anticancer activity against human MCF7 cells assessed as reduction in cell viability after 72 hrs by MTT assay
MCF7 [31] = test: Induction of apoptosis in human MCF7 cells assessed as early apoptotic cells at 2 uM after 24 hrs by Annexin V-FITC/propidium iodide staining-based flow cytometric analysis (reference value: 3.53 %); type: functional
[32] = Selectivity index, ratio IC50 for cytotoxicity against human HBMEC cells assessed as reduction in cell viability after 72 hrs by MTT assay to IC50 for anticancer activity against mouse 4T1 cells assessed as reduction in cell viability after 72 hrs by MTT assay
Mus musculus [33] = test: Modulation of tumor immunosuppressive activity in BALB/c mouse xenografted with mouse 4T1 cells assessed as increase in IFNgamma expression in serum administered intratumorally every other day for 14 days measured at 2 days post-last dose by ELISA; type: functional, organism-based

CC1(C)CC[C@]2(C(=O)O)CC[C@]3(C)C(=CC[C@@H]4[C@@]5(C)CC[C@H](O[C@@H]6O[C@H](CO[C@@H]7OC[C@H](O)[C@H](O)[C@H]7O)[C@@H](O)[C@H](O)[C@H]6NC(=O)C(Cl)Cl)C(C)(C)[C@@H]5CC[C@]43C)[C@@H]2C1
Activity (MCF7 [1]): 22.92% | Activity (MCF7 [2]): Active | inhibition [3]: Active | IC50 (A-375): 3.78 µM | Activity (MCF7 [4]): Active | Activity (4T1 [5]): Active | CI [6]: 1.41 | inhibition [7]: inactive | Activity (Mus musculus [8]): Active | Activity [9]: Non-Toxic | IC50 [10]: 38.2 µM | CI (L02): 2.13 | IC50 (HCT-116 [11]): 3.87 µM | Activity (Mus musculus [12]): Active | inhibition (4T1 [13]): Active | CI (HCT-116 [14]): 0.22 | Activity (4T1 [15]): <100 mm3 | Activity (MCF7 [16]): 46.39% | selectivity ratio at 72 h [17]: 12.7 | Activity [18]: Non-Toxic | fold change (FC) (MCF7 [19]): 4.4 | Activity (MCF7 [20]): inactive | Ratio IC50 [21]: 9.87 | IC50 (MCF7 [22]): 0.43 µM | Activity [23]: Non-Toxic | Activity (4T1 [24]): Active | Activity [25]: Non-Toxic | Activity (MCF7 [26]): Dose-dependent effect | Activity [27]: Non-Toxic | Activity (4T1 [28]): Active | Activity [29]: Non-Toxic | Ratio IC50 [30]: 88.83 | Activity (MCF7 [31]): 25.16% | Ratio IC50 [32]: 29.16 | Activity (Mus musculus [33]): Active
